According to PubChem BioAssay AID486 (Columbia University Molecular Screening Center, 2006):
Activity calls are given as the source filed them.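 The calls were made as follows: active = ranking score of 15 or more out of 100, based on fitted potency or summed per-dose inhibition deviations; inactive = the rest.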

Test system: exon1htt(103Q)-mCFP cells, aggregate imaging, high-content
Experiment: concentration-dependent loss of polyQ htt inclusions – imaging, exon1htt(103Q)-mCFP cells, high-content imaging, dose response (AID 486)

SMILES | IC50
COc1ccc(S(=O)(=O)Cc2ccc(C(=O)NCCc3ccc(S(N)(=O)=O)cc3)o2)cc1 | > 8 µM (inactive)
O=C(Nc1ccccc1)N(O)c1ccc(Cl)cc1 | > 8 µM (inactive)
Cc1ccc(Nc2nc(N)nc(CN3CCN(Cc4ccc5c(c4)OCO5)CC3)n2)cc1 | > 8 µM (inactive)
O=C(c1ccc(=O)[nH]c1)N(Cc1ccco1)C1(C(=O)NC2CCCC2)CCCCC1 | > 8 µM (inactive)
COc1ccc(CCNC(=O)c2ccc(N3CCCC3=O)cc2)cc1OC | > 8 µM (inactive)
CC(C)(NC(=O)N1CCCC1)c1cccc(C(C)(C)NC(=O)N2CCCC2)c1 | > 8 µM (inactive)
O=C(Nc1nccs1)c1ccc(Cl)c(S(=O)(=O)N2CCCCC2)c1 | > 8 µM (inactive)
CCCCc1nccn1CCn1ccnc1CCCC | > 8 µM (inactive)
CCOC(=O)N1CCN(C(=O)c2ccc3c(=O)n(Cc4ccc(OC)cc4)c(=S)[nH]c3c2)CC1 | > 8 µM (inactive)
O=C1Nc2ccccc2OC1CC(=O)N1CCCC1 (stereo not given) | > 8 µM (inactive)
Cc1cc(N2CCN(C3CCCC3)CC2)n2c(nc3ccccc32)c1C#N | > 8 µM (inactive)
O=C(NC1CCCc2ccccc21)c1ccc(CNc2c(N3CCOCC3)c(=O)c2=O)cc1 (stereo not given) | > 8 µM (inactive)
COc1ccc(-c2nnc(SCC#N)o2)cc1 | > 8 µM (inactive)
CSc1ccccc1NC(=O)c1c(Br)cnn1C | > 8 µM (inactive)
CCOc1cc(C(=O)N2CCN(c3ccccc3)CC2)cc(OCC)c1OCC | > 8 µM (inactive)
CS(=O)(=O)N1CCN(c2ccccc2NC(=O)c2ccc(-c3ccc(Cl)cc3Cl)o2)CC1 | > 8 µM (inactive)
CCOc1ccc(NS(=O)(=O)c2ccc(OCC(=O)N3CCCC3)cc2)cc1 | > 8 µM (inactive)
CN(C)c1ccc(O)c2c1CC1CC3[C@@H](N(C)C)C(=O)C(C(N)=O)=C(O)[C@]3(O)C(=O)C1=C2O (stereo not given in full) | < 0.1 µM
Cc1ccccc1-n1c(=O)cc(NCc2ccc3c(c2)OCO3)[nH]c1=O | > 8 µM (inactive)
COc1ccc(CCNC(=O)CSc2nnc(CNc3ccc(Cl)cc3)o2)cc1OC | > 8 µM (inactive)
COCCCNC(=O)C(Cc1ccccc1)NS(=O)(=O)c1ccc2c(c1)c(=O)n(C)c(=O)n2C (stereo not given) | > 8 µM (inactive)
Cn1c(=O)c2c(nc(NCc3ccc4c(c3)OCO4)n2Cc2ccccc2F)n(C)c1=O | > 8 µM (inactive)
O=C1NC(=O)C(CC(=O)N(Cc2ccco2)C2(C(=O)NC3CCCC3)CCCCC2)N1 (stereo not given) | > 8 µM (inactive)

SMILES | IC50
Cc1nc(C)n(C(C)CC(=O)O)n1 (stereo not given) | > 8 µM (inactive)
CCOC(=O)c1sc(NC(=O)c2c(C)nn(Cc3ccccc3)c2C)cc1C | > 8 µM (inactive)
Cc1ccccc1NC1=NCCCS1 | > 8 µM (inactive)
Nc1cc(-c2ccccc2)ccc1O | > 8 µM (inactive)
COc1cccc(C2C(C(=O)c3ccc(C)o3)=C(O)C(=O)N2CCCN(C)C)c1 (stereo not given) | > 8 µM (inactive)
Cc1cc(NC(=O)c2ccc(Cl)cc2)no1 | > 8 µM (inactive)
Cc1ccc(O)c(C(=O)c2cc(C#N)c(=O)n(CC3CCCO3)c2)c1 (stereo not given) | > 8 µM (inactive)
Cn1cccc1Cc1nnc(SCC(=O)NCC2CCCO2)n1-c1ccc(F)cc1 (stereo not given) | > 8 µM (inactive)
COc1cccc(/C=N/n2c(C)nc3ccccc32)c1OC | > 8 µM (inactive)
CCCCNC(=O)CSc1nc2ccc(N3CCOCC3)cc2c(=O)n1CCc1ccccc1 | > 8 µM (inactive)
COC(=O)c1oc2ccc(Br)cc2c1NC(C)=O | > 8 µM (inactive)
O=C(C1COc2ccccc2O1)N1CCCC1 (stereo not given) | > 8 µM (inactive)
Cc1c(C(=O)NCc2cccnc2)oc2ccc(S(=O)(=O)N3CCCCC3)cc12 | > 8 µM (inactive)
O=C(Nc1cnn(Cc2ccc(Cl)cc2Cl)c1)c1noc2c1CCCC2 | > 8 µM (inactive)
CC1(C)Cc2ccccc2C(N)=C1C#N | > 8 µM (inactive)
CCOc1cc(C(=O)Nc2ncccn2)cc(OCC)c1OCC | > 8 µM (inactive)
CCN(CC)c1ccc2cc(-c3nc4ccccc4[nH]3)c(=O)oc2c1 | > 8 µM (inactive)
COc1cccc(-c2nnc3sc(C4CCCCC4)nn23)c1 | > 4 µM (inactive)
Cn1c(=O)n(C)c2cc(NC(=O)C(F)(F)F)ccc21 | > 8 µM (inactive)
Cc1ccccc1OCC(O)CN (stereo not given) | > 8 µM (inactive)
CN(C)[C@@H]1C(=O)C(C(N)=O)=C(O)[C@@]2(O)C(=O)C3=C(O)c4c(O)cccc4[C@@](C)(O)[C@H]3[C@H](O)[C@@H]12 | < 0.1 µM
CC(OC1=CC(=O)CCC1)C(=O)c1ccccc1 (stereo not given) | > 8 µM (inactive)
